{"source": "patent US20090053220A1", "about": "“METHODS AND COMPOSITIONS FOR THE INHIBITION OF HIV INFECTION OF T CELLS” (priority 2006, published 2009)", "key": {"[1]": {"molecular_target": "envelope protein of HIV strain JRCSF (WT) (HIV strain JRCSF) (UniProt P20871)", "assay": "cell-based or functional assay"}, "[2]": {"molecular_target": "envelope protein of HIV strain JRCSF with N43D (HIV strain JRCSF) (UniProt P20871)", "assay": "cell-based or functional assay"}, "[3]": {"molecular_target": "envelope protein of HIV strain JRCSF with V38A (HIV strain JRCSF) (UniProt P20871)", "assay": "cell-based or functional assay"}, "[4]": {"molecular_target": "envelope protein of HIV strain JRCSF with G36D (HIV strain JRCSF) (UniProt P20871)", "assay": "cell-based or functional assay"}, "[5]": {"test_system": "T-20-resistant JRCSF envelope variant G36D reporter virus", "assay_type": "cell-based, HIV", "text": "(§1) In addition, three single amino acid substitutions, G36D, V38A and N43D, known to confer T-20 resistance for HIV were introduced into the JRCSF open reading frame by site-directed mutagenesis (QuikChange II kit, Stratagene, La Jolla, Calif.), thereby generating three T-20-resistant HIV envelope protein expression vectors called […], V38A and N43D.\n(§2) HIV reporter viruses for purposes of this experiment were constructed from: (1) the JRCSF WT envelope protein vector, (2) the T-20-resistant envelope protein variants G36D, V38A, or N43D generated in Example 4; or (3) the patient derived HIV envelope protein population of vectors from KJM (Day 1) or KJM (Week9) generated in Example 5. The reporter viruses were produced by co-transfecting the human embryonic kidney cell line HEK293FT (Invitrogen, Carlsbad, Calif.) with the envelope vectors described above and an envelope-deficient proviral DNA encoding a luciferase reporter gene. The cells were propagated in Dulbecco's Modified Eagle Medium (Invitrogen, Carlsbad, Calif.) supplemented with 10% fetal bovine serum (Invitrogen, Carlsbad, Calif.). Transfections were performed using Lipofectamine 2000 (Invitrogen, Carlsbad, Calif.). Culture supernatants were harvested 48 hours post-transfection and filtered through a 0.45 micron filter prior to infecting target cells.\n(§3) Viral infections were carried out in a human malignant glioma (U87) target cell expressing the human CD4 receptor and the human CCR5 chemokine receptor. Target cells were seeded into 96-well plates at a density of 3000 cells/well in Dulbecco's Modified Eagle Medium (Invitrogen, Carlsbad, Calif.) supplemented with 10% fetal bovine serum (Invitrogen. Carlsbad, Calif.) and cultured for […]. Target cells were then exposed to the virus generated in Example 6 mixed with varying concentrations of the entry inhibitors T-20 or an anti-CD4 MAb in a final volume of 40-80 microliters. Infection was triggered by centrifugation of the 96-well plates at 1200*g for 1.5-2.0 hours at 25° C. (i.e. spinoculation). After spinoculation, culture medium was added to a final volume of […] per well and the infected cultures were incubated for 3 days at 37° C. After 3 days the level of luciferase expressed in target cells was measured using a luciferase reporter gene assay reagent (Promega, Madison, Wis.), as described by the manufacturer.\n(§4) Dose-response curves for the inhibition of luciferase expression by entry inhibitors were derived by fitting the luciferase data with a four-parameter logistic using Origin 7 Client software (OriginLab, Northampton, Mass.). Each dose-response experiment comprised a nine point concentration curve plus untreated controls, all assayed in triplicate wells (raw data not shown). For each EC50 determination, the results of three or more independent experiments were used to calculate the average EC50 and standard error values."}, "[6]": {"test_system": "T-20-resistant JRCSF envelope variant V38A reporter virus", "assay_type": "cell-based, HIV", "text": "as §1, §2, §3, §4"}, "[7]": {"test_system": "T-20-resistant JRCSF envelope variant N43D reporter virus", "assay_type": "cell-based, HIV", "text": "as §1, §2, §3, §4"}, "[8]": {"test_system": "patient-derived envelope population KJM (week 9) reporter virus", "assay_type": "cell-based, HIV", "conditions": "KJM W9 virus", "text": "(§5) HIV RNA was extracted from patient serum using QIAamp isolation kits (Qiagen, Hilden. Germany) and used to generate cDNA with random hexamer primers (SuperScript First Strand Synthesis System for RT-PCR, Invitrogen, Carlsbad, Calif.). HIV envelope protein open reading frame sequences were specifically amplified using a nested PCR procedure with outer PCR primers: […]\n(§6) which initiate priming 239 bases upstream and 349 bases downstream of the envelope open reading frame, respectively. The inner PCR primers were the same primers used for directional cloning of the envelope sequence populations into the pCI-neo vector, as described in Example 4. The resulting PCR products represent a population of envelope sequences from HIV viruses present in two patient samples, KJM (day 1) and KJM (week 9).\nas §2, §3, §4"}, "[9]": {"test_system": "patient-derived envelope population KJM (day 1) reporter virus", "assay_type": "cell-based, HIV", "conditions": "KJM D1 virus", "text": "as §5, §6, §2, §3, §4"}, "[10]": {"test_system": "JRCSF WT envelope reporter virus", "assay_type": "cell-based, HIV", "text": "A DNA expression vector comprising the envelope protein of HIV strain JRCSF was constructed using a commercially available pCI-neo vector (Promega, Madison, Wis.). JRCSF is a primary isolate obtained from an HIV patient which was deposited with the NIH AIDS Research & Reference Reagent Program (Cat. No. 2708). The JRCSF envelope open reading frame was amplified by standard PCR using the following primers: […]\nThese primers initiate priming at codon 2 of the envelope open reading frame and immediately downstream of the envelope termination codon, respectively. They contain restriction enzymes recognition sequences suitable for directional cloning into the pCI-neo vector. This JRCSF envelope protein expression vector was used in Example 6 below as the WT control. […]\nViral infections were carried out in a human malignant glioma (U87) target cell expressing the human CD4 receptor and the human CCR5 chemokine receptor. […] After 3 days the level of luciferase expressed in target cells was measured using a luciferase reporter gene assay reagent (Promega, Madison, Wis.), as described by the manufacturer. […]"}, "[11]": {"conditions": "average +/- standard error, 4 determinations"}}}
{"substance": "T-20 (peptide)", "values": [{"measurement": "PMI", "setting": "[1]", "result": 98, "unit": "%"}, {"measurement": "Fold Change (EC50MUT/EC50WT JRCSF)", "setting": "[2]", "result": 22, "unit": "fold"}, {"measurement": "PMI", "setting": "[2]", "result": 96, "unit": "%"}, {"measurement": "Fold Change (EC50MUT/EC50WT JRCSF)", "setting": "[3]", "result": 32, "unit": "fold"}, {"measurement": "PMI", "setting": "[3]", "result": 91, "unit": "%"}, {"measurement": "Fold Change (EC50MUT/EC50WT JRCSF)", "setting": "[4]", "result": 11, "unit": "fold"}, {"measurement": "PMI", "setting": "[4]", "result": 99, "unit": "%"}]}
{"substance": "enfuvirtide", "values": [{"measurement": "PMI", "setting": "[5]", "result": "99 ± 1.5"}, {"measurement": "Fold Change", "setting": "[5]; EC50MUT/EC50WT JRCSF", "result": 11}, {"measurement": "EC50", "setting": "[5]; [11]", "result": "0.14 ± 0.026", "unit": "µg/mL"}, {"measurement": "PMI", "setting": "[6]", "result": "91 ± 8.9"}, {"measurement": "Fold Change", "setting": "[6]; EC50MUT/EC50WT JRCSF", "result": 32}, {"measurement": "EC50", "setting": "[6]; [11]", "result": "0.41 ± 0.21", "unit": "µg/mL"}, {"measurement": "PMI", "setting": "[7]", "result": "96 ± 3.4"}, {"measurement": "Fold Change", "setting": "[7]; EC50MUT/EC50WT JRCSF", "result": 22}, {"measurement": "EC50", "setting": "[7]; [11]", "result": "0.28 ± 0.08", "unit": "µg/mL"}, {"measurement": "PMI", "setting": "[8]", "result": "100 ± 0.58"}, {"measurement": "Fold Change", "setting": "[8]; EC50W9/EC50D1", "result": 0.93}, {"measurement": "EC50", "setting": "[8]; [11]", "result": "0.0085 ± 0.0027", "unit": "µg/mL"}, {"measurement": "PMI", "setting": "[9]", "result": "99 ± 1.3"}, {"measurement": "EC50", "setting": "[9]; [11]", "result": "0.0091 ± 0.003", "unit": "µg/mL"}, {"measurement": "PMI", "setting": "[10]", "result": "98 ± 2.4"}, {"measurement": "EC50", "setting": "[10]; [11]", "result": "0.013 ± 0.0035", "unit": "µg/mL"}]}
